# Measured values from publication PMC12399242 (Acta Pharmaceutica Sinica. B, 2025).
# Read-outs that look alike come from different tables or passages of the source.
# Key:
# [1] = PK study in SD rats; type: in vivo; details: male, Sprague-Dawley, plasma, SD rat; for half-life: mean ± SD, n = 3; for MRT last: read-out: MRT0–t; for MRT inf: read-out: MRT0–∞
# Method: All animal treatments were conducted using an approved protocol of Fudan University (2020CHEM-JS-009). A12 was dissolved in a mixture of DMSO/Solutol HS 15/normal saline (10/10/80, v/v/v). Six Sprague–Dawley rats (male, 180−220 g) were assigned into two groups (n = 3) randomly to receive i.v. (1 mg/kg) or p.o. administration (10 mg/kg) of A12. At the time points of 5, 15, 30 min, 1, 2, 4, 6, 8, 10, 12, and 24 h, blood samples were collected and centrifuged (4 °C, 4500 rpm, 10 min) to obtain plasma. Before LC‒MS/MS analysis, the plasma needs to be stored at −80 °C. Subsequently, 120 μL of MeCN containing internal standard was added to 30 μL of plasma. The mixture was shaken and centrifuged (4 °C, 10,000 rpm, 15 min) to afford the supernatant layer for LC‒MS/MS analysis. Finally, The WinNolin software was applied to calculate the pharmacokinetic parameters.
# [2] = tested on: HIV-1 L100I; assay: Antiviral activity against HIV-1 mutant L100I in MT-4 cells; type: cell-based; details: Human immunodeficiency virus 1, MT4, read-out: EC50 L100I
# [3] = tested on: HIV-1 F227L + V106A; assay: microbe, parasite or virus in culture; type: cell-based; details: Human immunodeficiency virus 1, MT4, read-out: EC50 F227L + V106A
structure (smiles),measurement,setting,value
"Cc1cc(-c2ccc(C#N)cc2)cc(C)c1Nc1nc(Nc2ccc(C#N)cc2)ncc1F [A12, 4′-((2-((4-Cyanophenyl)amino)-5-fluoropyrimidin-4-yl)amino)-3′,5′-dimethyl-[1,1′-biphenyl]-4-carbonitrile]",AUC(0-inf),"[1]; iv, 1.0 mg/kg i.v.",3060 ± 139 ng·h/mL
same,AUC(0-t),"[1]; iv, 1.0 mg/kg i.v.",3000 ± 142 ng·h/mL
same,Cmax,"[1]; iv, 1.0 mg/kg i.v.",2350 ± 178 ng/mL
same,Tmax,"[1]; iv, 1.0 mg/kg i.v.",0.0833 h
same,half-life,"[1]; iv, 1.0 mg/kg i.v.",5.53 ± 2.04 h
same,MRT last,"[1]; iv, 1.0 mg/kg i.v.",3.25 ± 0.575 h
same,MRT inf,"[1]; iv, 1.0 mg/kg i.v.",3.89 ± 1.03 h
same,bioavailability,"[1]; oral, 10.0 mg/kg p.o. vs 1.0 mg/kg i.v., read-out: F (oral bioavailability)",29.2 ± 6%
same,AUC(0-inf),"[1]; po, 10.0 mg/kg p.o.",8930 ± 1850 ng·h/mL
same,AUC(0-t),"[1]; po, 10.0 mg/kg p.o.",7340 ± 1890 ng·h/mL
same,Cmax,"[1]; po, 10.0 mg/kg p.o.",1390 ± 422 ng/mL
same,Tmax,"[1]; po, 10.0 mg/kg p.o.",1 h
same,half-life,"[1]; po, 10.0 mg/kg p.o.",13.6 ± 6.64 h
same,MRT last,"[1]; po, 10.0 mg/kg p.o.",6.18 ± 0.306 h
same,MRT inf,"[1]; po, 10.0 mg/kg p.o.",13.5 ± 6.49 h
same,EC50,[2],3 ± 0.5 nM
same,EC50,[3],157 ± 64 nM
